“Also recorded” adds a separate entry of the source. Read-outs that look alike come from different tables or passages of the source.
Key:
[1] = no reference given; cited from earlier work
[2] = human; cited from earlier work
[3] = 10 mg once daily for 10 days; cited from earlier work
[4] = coadministered with fluconazole vs ruxolitinib alone; cited from earlier work
healthy people = conditions: cited from earlier work
[5] = system: patients with hematological malignancies; assay: Adverse effects during the DDI study; format: in vivo, human
CYP3A4 = conditions: cited from earlier work
[6] = presence vs absence of food; cited from earlier work
SR-aGVHD patients = conditions: 10 mg ruxolitinib twice daily, cited from earlier work
[7] = system: patients receiving ruxolitinib; conditions: patients receiving ruxolitinib vs control regimen; cited from earlier work
CYP2C9 = conditions: cited from earlier work
patients undergoing HSCT = conditions: initial dose 5 mg twice daily; cited from earlier work
[8] = Ruxolitinib pharmacokinetics without and with co-administered voriconazole; format: in vivo, human
[9] = system: breast cancer resistance protein (BCRP); conditions: cited from earlier work
[10] = Voriconazole steady-state check from two adjacent trough concentrations; format: in vivo, human; conditions: first four patients, day 4, 200 mg per 12 h without loading dose
[11] = after pre-treatment with voriconazole vs ruxolitinib alone
[12] = ruxolitinib 5 mg co-administered with voriconazole
[13] = with voriconazole vs ruxolitinib alone

**Q.** Which bioavailability [1] does the source give for `CC[C@@H]([C@H](C)O)n1ncn(-c2ccc(N3CCN(c4ccc(OC[C@@H]5CO[C@@](Cn6cncn6)(c6ccc(F)cc6F)C5)cc4)CC3)cc2)c1=O` [posaconazole] here?
**A.** 83%

**Q.** With `N#CC[C@H](C1CCCC1)n1cc(-c2ncnc3[nH]ccc23)cn1` [ruxolitinib] as the molecule, how does the “unchanged parent molecules in urine and feces” value [2] read?
**A.** less than 1%

**Q.** What about the “accumulation on repeated dosing” value [3] of the same molecule?
**A.** no cumulative effect

**Q.** And the “AUCinf increased by” value [4]?
**A.** 232%

**Q.** What about the “AUClast increased by” value [4] of the same molecule?
**A.** 234%

**Q.** And the “Cmax increased by” value [4]?
**A.** 47%

**Q.** What about the “maximum tolerated dose (MTD)” value (healthy people; once daily) of the same molecule?
**A.** 100 mg

**Q.** What about the “maximum tolerated dose (MTD)” value (healthy people; twice daily) of the same molecule?
**A.** 25 mg

**Q.** And the adverse effects ([5]; two single doses of 5 mg ruxolitinib)?
**A.** No observed adverse effects; also recorded: No adverse effect

**Q.** And the “share of metabolism by CYP3A4” value (CYP3A4)?
**A.** 76%

**Q.** What about the “AUCinf decreased by food” value [6] of the same molecule?
**A.** 6%

**Q.** And the “Cmax decreased by food” value [6]?
**A.** 24.3%

**Q.** And the “overall response on day 28” value (SR-aGVHD patients; SR-aGVHD)?
**A.** 62%

**Q.** And the “anemia, severe (grade ≥ 3) adverse event” value (SR-aGVHD patients)?
**A.** 22%

**Q.** And the “neutropenia, severe (grade ≥ 3) adverse event” value (SR-aGVHD patients)?
**A.** 13%

**Q.** What about the “thrombocytopenia, severe (grade ≥ 3) adverse event” value (SR-aGVHD patients) of the same molecule?
**A.** 27%

**Q.** And the fungal infection [7]?
**A.** 11.5%

**Q.** What about the “share of metabolism by CYP2C9” value (CYP2C9) of the same molecule?
**A.** 19%

**Q.** And the “patients developing severe cytopenia” value (patients undergoing HSCT)?
**A.** 60%

**Q.** What about the patients responding (patients undergoing HSCT) of the same molecule?
**A.** 75%

**Q.** What about the “AUCinf increased by” value [8, 11] of the same molecule?
**A.** 118.3%

**Q.** And the “AUClast increased by” value [8, 11]?
**A.** 110.1%

**Q.** And the “Cmax increased by” value [8, 11]?
**A.** 50.4%

**Q.** What about the “T1/2 increased by” value [8, 11] of the same molecule?
**A.** 81.3%

**Q.** What about the “change in Tmax” value [8, 11] of the same molecule?
**A.** no significant change

**Q.** And the “CL/F % of ruxolitinib alone” value [8, 12]?
**A.** 43.6%

**Q.** What about the “Cmax % of ruxolitinib alone” value [8, 12] of the same molecule?
**A.** 150.4%

**Q.** And the CL/F ([8]; ruxolitinib 5 mg single oral dose alone, 12 patients, mean ± SD)?
**A.** 22.5 ± 6.4 L/h

**Q.** What about the “AUClast increased to” value [8, 13] of the same molecule?
**A.** approximately 2.1 fold

**Q.** What about the “T1/2 prolonged to” value [8, 13] of the same molecule?
**A.** 1.81 fold

**Q.** What about the “AUCinf increased to (range over patients)” value ([8]; with voriconazole vs ruxolitinib alone, range) of the same molecule?
**A.** 1.44–3.35 fold

**Q.** With `C[C@@H](c1ncncc1F)[C@](O)(Cn1cncn1)c1ccc(F)cc1F` [voriconazole] as the molecule, how does the adverse effects ([5]; voriconazole 200 mg per 12 h without loading dose, first four patients) read?
**A.** no adverse effects were observed

**Q.** And the “inhibition of BCRP” value [9]?
**A.** does not inhibit

**Q.** And the bioavailability [1]?
**A.** 96%

**Q.** What about the “difference between two trough concentrations (C12-C0)/C12×100%” value [10] of the same molecule?
**A.** less than 15%

Source: article PMC8964335 (Drug Design, Development and Therapy, 2022)
